Drawing on patent US10829481B2, “Benzimidazole derivatives as modulators of ROR-gamma” (Vitae Pharmaceuticals, LLC, priority 2016, dated 2020), this text covers IC50 and Ki for 19 compounds.

Experiment [1] deals with full-length RORγt in Jurkat cells (Homo sapiens (Human), UniProt P51449). Kind of experiment: RORγt 5×RORE Assay in Jurkat Cells (Assay 2). It counts as cell-based. As to conditions: 5×RORE Nanoluc luciferase reporter. The procedure: RORγt 5×RORE Assay in Jurkat Cells (Assay 2)
Compounds described herein were tested for RORγ inverse agonist activity in a cell-based, transcriptional activity assay. Secreted Nanoluc® luciferase was used as a reporter for transcriptional activity of the full-length RORγt in Jurkat cells (ATCC, Cat. #TIB-152). […] (Promega, Cat. #N1021) using KpnI and HindIII restriction sites. […] After 5-6 hrs of incubation at 37° C./5% CO2, the cells were collected, resuspended in phenol-red free RPMI media containing 10% (v/v) delipidated FBS (Hyclone, Cat. #SH30855.03) and dispensed into 96-well clear bottom tissue culture plates (CoStar, Cat. #3603), at 80,000 cells per well. Tested compounds were added to the cells in the same media (final concentration of DMSO was 0.1% (v/v)), and the plates were incubated at 37° C./5% CO2 for 16-18 hrs. Luciferase activity in the conditioned supernatants was determined with NanoGlo® assay reagents (Promega, Cat. #N1130).
On the technique in general: Reporter assays use an easily measured gene product as a stand-in for the process of interest.

In experiment [2] the target is recombinant RORγ Ligand Binding Domain (LBD) protein (Homo sapiens (Human), UniProt P51449). The experiment is described as follows: Radio-Ligand RORγ Binding Assay (Assay 1). The conditions noted are these: competition with 25-hydroxy [26,27-3H]-cholesterol, SPA. The protocol: Radio-Ligand RORγ Binding Assay (Assay 1)
recombinant RORγ Ligand Binding Domain (LBD) protein, sequence (P51449 269-508): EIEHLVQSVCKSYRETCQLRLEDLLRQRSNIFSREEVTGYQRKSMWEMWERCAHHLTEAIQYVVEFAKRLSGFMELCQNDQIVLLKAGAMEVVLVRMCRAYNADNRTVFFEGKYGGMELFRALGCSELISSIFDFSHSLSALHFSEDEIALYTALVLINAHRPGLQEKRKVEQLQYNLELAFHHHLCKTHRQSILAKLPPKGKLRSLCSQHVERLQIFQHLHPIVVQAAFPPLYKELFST
Compounds described herein were tested for ability to bind to RORγ in a cell-free competition assay with commercially available radio-ligand (RL), 25-hydroxy [26,27-^3H]-cholesterol (PerkinElmer, Cat. #NET674250UC), for a ligand binding site on a recombinant RORγ Ligand Binding Domain (LBD) protein expressed as a 6×His-Glutathione-S-Transferase (GST) fusion. The assay was performed in 96-well SPA plates (PerkinElmer, Cat. #1450-401) in 50 mM HEPES buffer, pH 7.4, containing 150 mM NaCl, 5 mM MgCl2, 10% (v/v) glycerol, 2 mM CHAPS, 0.5 mM β-octylglucopyranoside and 5 mM DTT. Tested compounds were dissolved in DMSO, and semi-log (3.162×) serial dilutions of the compounds were prepared in the same solvent. Two μL of the DMSO solutions were mixed with 28 μL of 8.6 nM 25-hydroxy [26,27-^3H]-cholesterol and 50 μL of 24 nM RORγ LBD. The plate was shaken at 700 rpm for 20 min and incubated for 10 min at rt, after which 40 μL of poly-Lys YSi SPA beads (PerkinElmer, Cat. #RPNQ0010) were added to achieve […] of the beads per well. The plate was incubated on an orbital shaker for 20 min and then for 10 min without agitation at rt. SPA signal for tritium beta radiation was registered on PerkinElmer Microbeta plate reader. […] The percent inhibition vs. concentration data were fit into a four-parameter model, and IC50 values were calculated from the fit as the concentrations corresponding to the inflection points on the dose-response curves. Inhibitory constants (Ki) were calculated using the following equation, where [RL] is the concentration in the assay and KD is a dissociation constant of 25-hydroxy [26,27-^3H]-cholesterol: […]

The structures appear in SMILES notation.

full-length RORγt in Jurkat cells, sequence (P51449 other isoform, or with tags, fused parts or gaps): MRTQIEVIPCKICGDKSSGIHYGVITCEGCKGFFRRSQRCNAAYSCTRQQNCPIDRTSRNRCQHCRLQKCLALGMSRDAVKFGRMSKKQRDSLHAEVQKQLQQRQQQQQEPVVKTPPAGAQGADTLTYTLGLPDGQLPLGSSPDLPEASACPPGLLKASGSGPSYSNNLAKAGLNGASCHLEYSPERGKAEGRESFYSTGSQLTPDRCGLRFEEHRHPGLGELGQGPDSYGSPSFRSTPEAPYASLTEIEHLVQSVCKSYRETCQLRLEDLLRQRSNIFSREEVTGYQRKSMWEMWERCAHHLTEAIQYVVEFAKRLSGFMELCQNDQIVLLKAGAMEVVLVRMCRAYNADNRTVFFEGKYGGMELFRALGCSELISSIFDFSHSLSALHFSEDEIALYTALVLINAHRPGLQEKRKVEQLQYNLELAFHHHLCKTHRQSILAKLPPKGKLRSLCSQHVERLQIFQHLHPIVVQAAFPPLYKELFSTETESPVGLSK

Broadly, the IC50 is the concentration needed to halve the response being measured. Read a high IC50 as weaker potency. As usually defined, the Ki is the equilibrium dissociation constant of an inhibitor or competing ligand from its target. On to `CCS(=O)(=O)c1ccc([C@@H](CO)NC(=O)c2ccc3c(c2)nc(C(F)(F)F)n3Cc2cccc3c2OC(F)(F)O3)cc1` [I-11.2, (S)-1-((2,2-difluorobenzo[d][1,3]dioxol-4-yl)methyl)-N-(1-(4-(ethylsulfonyl)phenyl)-2-hydroxyethyl)-2-(trifluoromethyl)-1H-benzo[d]imidazole-5-carboxamide], for which the IC50 in experiment [1] is less than 100 nM. The Ki in experiment [2] was less than 100 nM.

As for `CCc1nc2cc(C(=O)N[C@@H](CO)c3ccc(S(=O)(=O)CC)cc3)ccc2n1Cc1cccc2c1OC(F)(F)O2` [I-16, (R)-1-((2,2-difluorobenzo[d][1,3]dioxol-4-yl)methyl)-2-ethyl-N-(1-(4-(ethylsulfonyl)phenyl)-2-hydroxyethyl)-1H-benzo[d]imidazole-5-carboxamide], the IC50 in experiment [1] was less than 100 nM. The Ki in experiment [2] is less than 100 nM.

In experiment [1], `CCS(=O)(=O)c1ccc([C@H](CO)NC(=O)c2ccc3c(c2)nc(C(F)F)n3Cc2cccc3c2OC(F)(F)O3)cc1` [I-17, (R)-1-((2,2-difluorobenzo[d][1,3]dioxol-4-yl)methyl)-2-(difluoromethyl)-N-(1-(4-(ethylsulfonyl)phenyl)-2-hydroxyethyl)-1H-benzo[d]imidazole-5-carboxamide] gave an IC50 of less than 100 nM. For the same compound, in experiment [2], the Ki is less than 100 nM.

Consider `CCS(=O)(=O)c1ccc([C@H](CO)NC(=O)c2ccc3c(c2)nc(C2(F)CC2)n3Cc2cccc3c2OC(F)(F)O3)cc1` [I-18, (R)-1-((2,2-difluorobenzo[d][1,3]dioxol-4-yl)methyl)-N-(1-(4-(ethylsulfonyl)phenyl)-2-hydroxyethyl)-2-(1-fluorocyclopropyl)-1H-benzo[d]imidazole-5-carboxamide], for which, in experiment [1], the IC50 is less than 100 nM. Further, the Ki in experiment [2] was less than 100 nM.

For the compound `CS(=O)(=O)c1ccc([C@H](CO)NC(=O)c2ccc3c(c2)nc(C(F)(F)F)n3Cc2cccc3c2OC(F)(F)O3)cc1` [I-20.1, (R)-1-((2,2-difluorobenzo[d][1,3]dioxol-4-yl)methyl)-N-(2-hydroxy-1-(4-(methylsulfonyl)phenyl)ethyl)-2-(trifluoromethyl)-1H-benzo[d]imidazole-5-carboxamide], in experiment [1], the IC50 was less than 100 nM. In experiment [2], the Ki is less than 100 nM.

Take `CS(=O)(=O)c1ccc([C@@H](CO)NC(=O)c2ccc3c(c2)nc(C(F)(F)F)n3Cc2cccc3c2OC(F)(F)O3)cc1` [I-20.2, (S)-1-((2,2-difluorobenzo[d][1,3]dioxol-4-yl)methyl)-N-(2-hydroxy-1-(4-(methylsulfonyl)phenyl)ethyl)-2-(trifluoromethyl)-1H-benzo[d]imidazole-5-carboxamide]: the IC50 in experiment [1] was less than 100 nM. Moreover, the Ki in experiment [2] is less than 100 nM.

As for `CS(=O)(=O)c1ccc([C@H](CO)NC(=O)c2ccc3c(c2)nc(C2CC2)n3Cc2cccc3c2OC(F)(F)O3)cc1` [I-21, (R)-2-cyclopropyl-1-((2,2-difluorobenzo[d][1,3]dioxol-4-yl)methyl)-N-(2-hydroxy-1-(4-(methylsulfonyl)phenyl)ethyl)-1H-benzo[d]imidazole-5-carboxamide], in experiment [1], the IC50 was less than 100 nM. For the same compound, the Ki in experiment [2] was less than 100 nM.

With `CS(=O)(=O)c1ccc([C@H](CO)NC(=O)c2ccc3c(c2)nc(C2CCC2)n3Cc2cccc3c2OC(F)(F)O3)cc1` [I-22, (R)-2-cyclobutyl-1-((2,2-difluorobenzo[d][1,3]dioxol-4-yl)methyl)-N-(2-hydroxy-1-(4-(methylsulfonyl)phenyl)ethyl)-1H-benzo[d]imidazole-5-carboxamide], the IC50 in experiment [1] is less than 100 nM. For the same compound, the Ki in experiment [2] was less than 100 nM.

With `CS(=O)(=O)c1ccc([C@H](CO)NC(=O)c2ccc3c(c2)nc(C(F)F)n3Cc2cccc3c2OC(F)(F)O3)cc1` [I-23.1, (R)-1-((2,2-difluorobenzo[d][1,3]dioxol-4-yl)methyl)-2-(difluoromethyl)-N-(2-hydroxy-1-(4-(methylsulfonyl)phenyl)ethyl)-1H-benzo[d]imidazole-5-carboxamide], in experiment [1], the IC50 is less than 100 nM. Also, the Ki in experiment [2] was less than 100 nM.

`CS(=O)(=O)c1ccc([C@@H](CO)NC(=O)c2ccc3c(c2)nc(C(F)F)n3Cc2cccc3c2OC(F)(F)O3)cc1` [I-23.2, (S)-1-((2,2-difluorobenzo[d][1,3]dioxol-4-yl)methyl)-2-(difluoromethyl)-N-(2-hydroxy-1-(4-(methylsulfonyl)phenyl)ethyl)-1H-benzo[d]imidazole-5-carboxamide] yielded an IC50 in experiment [1] of 100 to 1000 nM. Moreover, the Ki in experiment [2] is less than 100 nM.

In experiment [1], `CS(=O)(=O)c1ccc([C@H](CO)NC(=O)c2ccc3c(c2)nc(C2(F)CC2)n3Cc2cccc3c2OC(F)(F)O3)cc1` [I-24, (R)-1-((2,2-difluorobenzo[d][1,3]dioxol-4-yl)methyl)-2-(1-fluorocyclopropyl)-N-(2-hydroxy-1-(4-(methylsulfonyl)phenyl)ethyl)-1H-benzo[d]imidazole-5-carboxamide] displayed an IC50 of less than 100 nM. Moreover, in experiment [2], the Ki is less than 100 nM.

With `CCS(=O)(=O)c1ccc(CNC(=O)c2ccc3c(c2)nc(C(F)(F)F)n3Cc2cccc3c2OC(F)(F)O3)cc1` [I-25, 1-((2,2-difluorobenzo[d][1,3]dioxol-4-yl)methyl)-N-(4-(ethylsulfonyl)benzyl)-2-(trifluoromethyl)-1H-benzo[d]imidazole-5-carboxamide], in experiment [1], the IC50 is less than 100 nM. In experiment [2], the Ki is less than 100 nM.

As for `CCS(=O)(=O)c1ccc(CNC(=O)c2ccc3c(c2)nc(C2CC2)n3Cc2cccc3c2OC(F)(F)O3)cc1` [I-26, 2-cyclopropyl-1-((2,2-difluorobenzo[d][1,3]dioxol-4-yl)methyl)-N-(4-(ethylsulfonyl)benzyl)-1H-benzo[d]imidazole-5-carboxamide], the concentration for half-maximal inhibition (IC50) in experiment [1] was less than 100 nM. The Ki in experiment [2] was less than 100 nM.

In experiment [1], `CCS(=O)(=O)c1ccc(CNC(=O)c2ccc3c(c2)nc(C2(F)CC2)n3Cc2cccc3c2OC(F)(F)O3)cc1` [I-27, 1-((2,2-difluorobenzo[d][1,3]dioxol-4-yl)methyl)-N-(4-(ethylsulfonyl)benzyl)-2-(1-fluorocyclopropyl)-1H-benzo[d]imidazole-5-carboxamide] registered an IC50 of less than 100 nM. Besides, the Ki in experiment [2] was less than 100 nM.

Regarding `CCS(=O)(=O)c1ccc(CNC(=O)c2ccc3c(c2)nc(COC)n3Cc2cccc3c2OC(F)(F)O3)cc1` [I-28, 1-((2,2-difluorobenzo[d][1,3]dioxol-4-yl)methyl)-N-(4-(ethylsulfonyl)benzyl)-2-(methoxymethyl)-1H-benzo[d]imidazole-5-carboxamide], the IC50 in experiment [1] was less than 100 nM. In addition, the Ki in experiment [2] was less than 100 nM.

The compound `CCc1nc2cc(C(=O)NCc3ccc(S(=O)(=O)CC)cc3)ccc2n1Cc1cccc2c1OC(F)(F)O2` [I-29, 1-((2,2-difluorobenzo[d][1,3]dioxol-4-yl)methyl)-2-ethyl-N-(4-(ethylsulfonyl)benzyl)-1H-benzo[d]imidazole-5-carboxamide] gave an IC50 in experiment [1] of less than 100 nM. The Ki in experiment [2] was less than 100 nM.

As to `CCS(=O)(=O)c1ccc(CNC(=O)c2ccc3c(c2)nc(C(C)(C)C)n3Cc2cccc3c2OC(F)(F)O3)cc1` [I-30, 2-(tert-butyl)-1-((2,2-difluorobenzo[d][1,3]dioxol-4-yl)methyl)-N-(4-(ethylsulfonyl)benzyl)-1H-benzo[d]imidazole-5-carboxamide], the IC50 in experiment [1] is less than 100 nM. In addition, the Ki in experiment [2] was less than 100 nM.

Turning to `CCS(=O)(=O)c1ccc(CNC(=O)c2ccc3c(c2)nc(C(C)C)n3Cc2cccc3c2OC(F)(F)O3)cc1` [I-31, 1-((2,2-difluorobenzo[d][1,3]dioxol-4-yl)methyl)-N-(4-(ethylsulfonyl)benzyl)-2-isopropyl-1H-benzo[d]imidazole-5-carboxamide], in experiment [1], the IC50 was less than 100 nM. In addition, in experiment [2], the Ki is less than 100 nM.

The compound `CCS(=O)(=O)c1ccc(CNC(=O)c2ccc3c(c2)nc(C)n3Cc2cccc3c2OC(F)(F)O3)cc1` [I-32, 1-((2,2-difluorobenzo[d][1,3]dioxol-4-yl)methyl)-N-(4-(ethylsulfonyl)benzyl)-2-methyl-1H-benzo[d]imidazole-5-carboxamide] displayed an IC50 in experiment [1] greater than 1000 nM. Moreover, the Ki in experiment [2] was less than 100 nM.
